# Assays:
# [1] = system: Pseudocercosporella herpotrichoides; assay: In vitro fungicidal activity, growth inhibition of ground fungal mycelia (PSDCHE); type: cell-based; conditions: Oculimacula yallundae, 3-4 days at 21° C., averaged when more than one test, read-out: Growth inhibition rating, PSDCHE (converted)
# Method: (§1) Test compounds are dissolved or suspended in acetone and dispersed into cell well plates containing a suspension of ground fungal mycelia in a nutrient broth. Assay plates are incubated for 3-4 days at 21° C. Growth inhibition is measured visually and is rated using the following scale:
# (§2) Assay fungi include the plant pathogens, Pythium ultimum (Pythul); Rhizoctonia solani (Rhizso); Fusarium oxysporum f. sp. cucumerinum (Fusoxc); and Pseudocercosporella herpotrichoides (Psdche).
# (§3) When more than one test is run, the data are averaged.
# Rhizoctonia solani = assay: In vitro fungicidal activity, growth inhibition of ground fungal mycelia (RHIZSO); type: cell-based; conditions: 3-4 days at 21° C., averaged when more than one test, read-out: Growth inhibition rating, RHIZSO
# Method: as §1, §2, §3
# Venturia inaegualis = assay: In vivo fungicidal activity on host plants, Apple Scab (AS); conditions: 400 ppm; sprayed on host plants before inoculation
# Plasmopara viticola = assay: In vivo fungicidal activity on host plants, Grape Downy Mildew (GDM); conditions: 400 ppm; sprayed on host plants before inoculation
# Botrytis cinerea = assay: In vivo fungicidal activity on host plants, Pepper Botrytis (PB); conditions: 400 ppm; sprayed on host plants before inoculation
# Pyricularia oryzae = type: in vivo; conditions: 400 ppm; sprayed on host plants before inoculation
# Cercospora beticola = assay: In vivo fungicidal activity on host plants, Sugar Beet Cercospora (SBC); conditions: 400 ppm; sprayed on host plants before inoculation; note: ranges in brackets are in %
# [2] = system: Puccinia recondita f. sp. tritici; assay: In vivo fungicidal activity on host plants, Wheat Leaf Rust (WLR); conditions: 400 ppm; sprayed on host plants before inoculation
# [3] = system: Erysiphe graminis f. sp. tritici; assay: In vivo fungicidal activity on host plants, Wheat Powdery Mildew (WPM); conditions: 400 ppm; sprayed on host plants before inoculation
# Pythium ultimum = assay: In vitro fungicidal activity, growth inhibition of ground fungal mycelia (PYTHUL); type: cell-based; conditions: Globisporangium ultimum, 3-4 days at 21° C., averaged when more than one test, read-out: Growth inhibition rating, PYTHUL (converted)
# Method: as §1, §2, §3
# [4] = system: Fusarium oxysporum f. sp. cucumerinum; assay: In vitro fungicidal activity, growth inhibition of ground fungal mycelia (FUSOXC); type: cell-based; conditions: 25 ppm, 3-4 days at 21° C., averaged when more than one test, read-out: Growth inhibition rating, FUSOXC
# Method: as §1, §2, §3
Structure (SMILES),inhibition at 25 ppm [1],inhibition at 25 ppm (Rhizoctonia solani),"Disease control rating, AS (Venturia inaegualis)","Disease control rating, GDM (Plasmopara viticola)","Disease control rating, PB (Botrytis cinerea)","Disease control rating, RB (Pyricularia oryzae)","Disease control rating, SBC (Cercospora beticola)","Disease control rating, WLR [2]","Disease control rating, WPM [3]",inhibition at 25 ppm (Pythium ultimum),inhibition at 25 ppm [4]
"N#Cc1cc(-c2ccc(Cl)s2)[nH]c1Cl [Compound 6, 2-Chloro-5-(5-chloro-2-thienyl)pyrrole-3-carbonitrile]",60 to 89%,60 to 89%,9 (100),7 (90-95),0 (0),0 (0),6 (75-89),6 (75-89),0 (0),,
"FC(F)(F)c1[nH]c(-c2ccc(Cl)cc2)cc1-c1ccco1 [Compound 4, 5-(p-Chlorophenyl)-3-(2-furyl)-2-(trifluoromethyl)pyrrole]",100%,,2 (15-29),8 (96-99),0 (0),1 (1-14),0 (0),6 (75-89),0 (0),60 to 89%,
"FC(F)(F)c1[nH]c(-c2ccc(Cl)cc2)cc1-c1csc(Br)c1 [Compound 9, 3-(5-Bromo-3-thienyl)-5-(p-chlorophenyl)-2-(trifluoromethyl)pyrrole]",0%,60 to 89%,0 (0),6 (75-89),0 (0),0 (0),0 (0),0 (0),0 (0),0%,0%
"N#Cc1c(-c2oc3ccccc3c2Cl)[nH]c(Cl)c1Cl [Compound 1, 4,5-Dichloro-2-(3-chloro-2-benzofuranyl)pyrrole-3-carbonitrile]",1 to 29%,1 to 29%,0 (0),,2 (15-29),4 (45-59),0 (0),2 (15-29),0 (0),1 to 29%,
"N#Cc1c(Cl)[nH]c(-c2ccc(Cl)s2)c1Br [Compound 7, 4-Bromo-2-chloro-5-(5-chloro-2-thienyl)pyrrole-3-carbonitrile]",,60 to 89%,8 (96-99),0 (0),0 (0),0 (0),0 (0),7 (90-95),0 (0),,0%

# Source: US5480902A, “Thienylpyrrole fungicidal agents” (American Cyanamid Company, priority 1993, dated 1996)
